# Data from patent US20030232851A1, “Viral treatment” (The Procter & Gamble Company, priority 1999, published 2003).
# Values joined by “and” are separate entries in the source; they are usually repeats but may differ in a detail not shown here. Identical values can stand only once.
# How the values were obtained:
# [1] = system: Cryptococcus neoformans; assay: Anti-fungal activity (NCCLS M-27A based), Cryptococcus neoformans; format: cell-based; conditions: for MFC data / MFC: cidal level; for MIC data / MIC: growth inhibited or reduced at least 90%; for MFC / MIC: Cryptococcus neoformans
# Description: (§1) It was active against cryptococcus neoformans and curvularai lunata. The cidal activity for the C. neoformans is high enough that it is clear […] against this yeast. This test was conducted using a method based upon NCCLS reference method M-27A published in 1997. Solvent, medium and growth controls were set-up with the tests. Once these were read to validate the test performance, the QC fungi were read to insure they had expected results. These steps validated the test system. DMSO was used as a drug-chemical solvent. […] The 90% cut-off is necessary for azoles, which are static and not cidal. The FMC or cidal level was determined by sub-culturing a sample from each tube showing no growth.
# [2] = system: Curvularia lunata; assay: Anti-fungal activity (NCCLS M-27A based), Curvularia lunata; format: cell-based; conditions: growth inhibited or reduced at least 90%; for MIC: Curvularia lunata
# Description: as §1
# [3] = system: vero cells; design: unit not given beside the values; conditions: African green monkey
# [4] = system: HEPG22.2.15; assay: Hepatitis B test: toxicity values; format: cell-based
# [5] = system: hepatitis B, HEPG22.2.15; assay: In vitro virus production test of hepatitis B, DNA copy number; format: cell-based
# [6] = target: HIV-1 integrase (Human immunodeficiency virus type 1 group M subtype B, UniProt P04585); assay: HIV-1 integrase inhibition assay; format: biochemical; design: HIV-1 Integrase Inhibition, sample reading / HIV-1 Integrase Inhibition, mean: unit not given here; conditions: for HIV-1 Integrase Inhibition, sample reading: sample 1, sample 2, hydrochloride salt
# Source text: A biochemical integrase assay described by Craigie et at (HIV, vol. 2: A practical Approach) Biochemistry, Molecular Biology and Drug Discovery, Ed. J. Kam 1995) to screen agents for their ability to inhibit HIV-1 integrase. In this system, a kinased oligonucleotide serves as the target of 3′ processing and the subsequent strand transfer reaction. The 3′ processing reaction involves the removal of 2 nucleotides from the 3′ ends of the substrate and this is followed by the strand transfer reaction in which the 3′ ends are joined to the exposed 5′ ends. The 20 μl reaction mixture contains 25 mM MOPS (pH 7.2), […] BSA, 10 mM β-mercaptoethanol, 10% glycerol, 7.5 mM MnCl2, 25 nM (7 ng) substrate (Oligo's Etc., Wilsonville, Oreg.) and 200 nM (128 ng) integrase (NIAID AIDS Research and Reference Reagent Program, Bethesda, Md.). The reaction proceeds at 37° C. for 1-2 hours and is terminated by the addition of 20 μl of sequencing stop solution (JSB Amersham, Arlington Heights, Ill.). The reaction products are visualized by autoradiography following electrophoresis in 15% polyacrylamide 6M Urea gel. The substrate migrates as a 30 mer, the product of 3′ processing migrates as an N-2 band and the strand transfer products migrate more slowly at various sizes larger than the substrate.
# [7] = target: T1, HIV-1 protease (Human immunodeficiency virus type 1 group M subtype B, UniProt P04585); assay: Protease inhibition assay (fluorometric); format: biochemical; conditions: for Protease Inhibition, sample reading: sample 1, sample 2, hydrochloride salt
# T1 construct: precludes use of the fluorometric HIV-1 protease assay; purchased Bachem
# Description: Protease inhibition is evaluated using a fluorometric method. Enzyme (Bachem) is diluted to 116 μgm/ml in 50 mM NaOAC, 5 mM DTT, 2 mM EDTA, 10% glycerol (pH 5.0) and stored as 10 μl samples at −20° C., HIV protease substrates I (Molecular Probes) is diluted to a working concentration of 0.32 nmoles/μl. Enzyme (20 μl) and drug (20 μl) are added to each well of a microtiter plate as appropriate. Positive and negative controls are evaluated in parallel. Fluorescence is quantitated on Labsystems Fluroskan II using 355 nm/460 nm at 37° C. at time zero and at 30 minute intervals for 2 hours. In instances where autofluorescence precludes use of the fluorometric HIV-1 protease assay or confirmation of a result is required, an HPLC based protease assay can be employed.
# [8] = system: HHV8 cell line, TPA-induced BCBL-1 cells; assay: Kaposi's Sarcoma (HHV8) in vitro test, DNA copy number; format: cell-based
# Description: (§2) The DNA copy number and the toxicity value were measured and compared with Cidofovir.
# [9] = system: TPA-induced BCBL-1 cells; assay: Kaposi's Sarcoma test: toxicity values; format: cell-based; design: Toxicity Values, samples 1-3 / Toxicity Values, average: scale not given here
# Description: as §2
compound,measurement,setting,value
"C[C@@H]1[C@H](O)[C@@H](C)/C=C/C=C/C=C/C=C/C=C/C=C/C=C/[C@H](O[C@@H]2O[C@H](C)[C@@H](O)[C@H](N)[C@@H]2O)C[C@@H]2O[C@](O)(C[C@@H](O)C[C@@H](O)[C@H](O)CC[C@@H](O)C[C@@H](O)CC(=O)O[C@H]1C)C[C@H](O)[C@H]2C(=O)O [AmB, amphotericin B]",MFC data,[1],1 µg/mL
same,MIC data,[1],0.25 µg/mL
same,MIC data,[2],0.03 µg/mL
Nc1nc2c(ncn2COCCO)c(=O)[nH]1 [Acyclovir],TC50,[3],> 1
"Nc1ccn([C@@H]2CS[C@H](CO)O2)c(=O)n1 [3TC, lamivudine]","Toxicity Values, % cell control",[4]; 0.0032 μg/ml,90.8%
same,"Toxicity Values, mean",[4]; 0.0032 μg/ml,1.137
same,"Toxicity Values, samples 1-3",[4]; 0.0032 μg/ml,1.009 and 1.173 and 1.230
same,"Toxicity Values, % cell control",[4]; 0.01 μg/ml,84.6%
same,"Toxicity Values, mean",[4]; 0.01 μg/ml,1.060
same,"Toxicity Values, samples 1-3",[4]; 0.01 μg/ml,1.001 and 1.081 and 1.099
same,"Toxicity Values, % cell control",[4]; 0.032 μg/ml,94.3%
same,"Toxicity Values, mean",[4]; 0.032 μg/ml,1.181
same,"Toxicity Values, samples 1-3",[4]; 0.032 μg/ml,1.074 and 1.153 and 1.316
same,"Toxicity Values, mean",[4]; 0.1 μg/ml,1.190
same,"Toxicity Values, samples 1-3",[4]; 0.1 μg/ml,1.151 and 1.220 and 1.200
same,"Toxicity Values, % cell control",[4]; 0.32 μg/ml,93.6%
same,"Toxicity Values, mean",[4]; 0.32 μg/ml,1.172
same,"Toxicity Values, samples 1-3",[4]; 0.32 μg/ml,1.082 and 1.207 and 1.227
same,"Toxicity Values, % cell control",[4]; 1 μg/ml,106.5%
same,"Toxicity Values, mean",[4]; 1 μg/ml,1.334
same,"Toxicity Values, samples 1-3",[4]; 1 μg/ml,1.423 and 1.256 and 1.322
same,TC50,[4]; first experiment,> 1 µg/mL
same,TC50,[4]; replicate experiment,> 1 µg/mL
same,"DNA Copy Number, % virus control",[5]; 0.0032 μg/ml,97.8%
same,"DNA Copy Number, mean",[5]; 0.0032 μg/ml,280.4 per 3 μl
same,"DNA Copy Number, samples 1-3",[5]; 0.0032 μg/ml,265.4 per 3 μl and 328.0 per 3 μl and 247.9 per 3 μl
same,"DNA Copy Number, % virus control",[5]; 0.01 μg/ml,87.8%
same,"DNA Copy Number, mean",[5]; 0.01 μg/ml,251.7 per 3 μl
same,"DNA Copy Number, samples 1-3",[5]; 0.01 μg/ml,286.1 per 3 μl and 276.7 per 3 μl
same,"DNA Copy Number, % virus control",[5]; 0.032 μg/ml,80.4%
same,"DNA Copy Number, mean",[5]; 0.032 μg/ml,230.4 per 3 μl
same,"DNA Copy Number, samples 1-3",[5]; 0.032 μg/ml,243.2 per 3 μl and 255.3 per 3 μl
same,"DNA Copy Number, % virus control",[5]; 0.1 μg/ml,24.2%
same,"DNA Copy Number, mean",[5]; 0.1 μg/ml,69.4 per 3 μl
same,"DNA Copy Number, samples 1-3",[5]; 0.1 μg/ml,73.0 per 3 μl and 74.8 per 3 μl and 60.5 per 3 μl
same,"DNA Copy Number, % virus control",[5]; 0.32 μg/ml,13.1%
same,"DNA Copy Number, mean",[5]; 0.32 μg/ml,46.1 per 3 μl
same,"DNA Copy Number, samples 1-3",[5]; 0.32 μg/ml,36.7 per 3 μl and 45.1 per 3 μl and 56.5 per 3 μl
same,"DNA Copy Number, % virus control",[5]; 1 μg/ml,1.4%
same,"DNA Copy Number, mean",[5]; 1 μg/ml,4.0 per 3 μl
same,IC50,"[5]; HepG2 2.2.15, first experiment",0.089 µg/mL
same,IC50,"[5]; HepG2 2.2.15, replicate experiment",0.021 µg/mL
"c1ccc2[nH]c(-c3cscn3)nc2c1 [Thia, thiabendazole]",MFC,[1],> 32 µg/mL
same,MIC,[1],16 µg/mL
same,MIC,[2],≥ 32 µg/mL
"Cl.c1csc(-c2nc3ncccc3[nH]2)c1 [2-(2-thienyl)-imidazolo [4,5-b]pyridine hydrochloride salt]",EC50,[6],> 421 µM
same,"HIV-1 Integrase Inhibition, mean",[6]; 0.1 μg/ml,9144
same,"HIV-1 Integrase Inhibition, sample reading",[6]; 0.1 μg/ml,9338.5 and 8948.8
same,"HIV-1 Integrase Inhibition, mean",[6]; 1 μg/ml,12194
same,"HIV-1 Integrase Inhibition, sample reading",[6]; 1 μg/ml,11838.2 and 12550.7
same,"HIV-1 Integrase Inhibition, mean",[6]; 10 μg/ml,12299
same,"HIV-1 Integrase Inhibition, sample reading",[6]; 10 μg/ml,10848.3 and 13750.3
same,"HIV-1 Integrase Inhibition, mean",[6]; 100 μg/ml,10570
same,"HIV-1 Integrase Inhibition, sample reading",[6]; 100 μg/ml,10212.5 and 10928.4
same,"Protease Inhibition, mean",[7]; 1 nM,26.3
same,"Protease Inhibition, sample reading",[7]; 1 nM,29.9 and 22.6
same,"Protease Inhibition, mean",[7]; 10 nM,35.0
same,"Protease Inhibition, sample reading",[7]; 10 nM,36.0 and 34.1
same,"Protease Inhibition, mean",[7]; 100 nM,84.8
same,"Protease Inhibition, sample reading",[7]; 100 nM,85.4 and 84.2
same,"Protease Inhibition, mean",[7]; 1000 nM,247.3
same,"Protease Inhibition, sample reading",[7]; 1000 nM,245.7 and 248.8
"Nc1ccn(C[C@@H](CO)OCP(=O)(O)O)c(=O)n1 [Cidofovir, reference compound]","DNA Copy Number, % virus control",[8]; 0.08 μM,95.3%
same,"DNA Copy Number, average",[8]; 0.08 μM,8478.0 per 3 μl
same,"DNA Copy Number, samples 1-3",[8]; 0.08 μM,8485.1 per 3 μl and 7948.1 per 3 μl and 9000.8 per 3 μl
same,"DNA Copy Number, % virus control",[8]; 0.25 μM,75.0%
same,"DNA Copy Number, average",[8]; 0.25 μM,6666.9 per 3 μl
same,"DNA Copy Number, samples 1-3",[8]; 0.25 μM,6668.9 per 3 μl and 6336.3 per 3 μl and 6995.5 per 3 μl
same,"DNA Copy Number, % virus control",[8]; 0.8 μM,57.5%
same,"DNA Copy Number, average",[8]; 0.8 μM,5108.6 per 3 μl
same,"DNA Copy Number, % virus control",[8]; 2.5 μM,14.3%
same,"DNA Copy Number, average",[8]; 2.5 μM,1276.9 per 3 μl
same,"DNA Copy Number, samples 1-3",[8]; 2.5 μM,1329.8 per 3 μl and 1198.3 per 3 μl and 1275.7 per 3 μl
same,"DNA Copy Number, % virus control",[8]; 8 μM,0.0%
same,"DNA Copy Number, average",[8]; 8 μM,3.0 per 3 μl
same,"DNA Copy Number, % virus control",[8]; 25 μM,0.0%
same,"DNA Copy Number, average",[8]; 25 μM,0.0 per 3 μl
same,"DNA Copy Number, samples 1-3",[8]; 25 μM,0 per 3 μl and 0.0 per 3 μl
same,IC50,"[8]; Human gammaherpesvirus 8, BCBL1",1.1 µM
same,"Toxicity Values, % cell control",[9]; 0.08 μM,83.9%
same,"Toxicity Values, average",[9]; 0.08 μM,0.814
same,"Toxicity Values, samples 1-3",[9]; 0.08 μM,0.864 and 0.797 and 0.780
same,"Toxicity Values, % cell control",[9]; 0.25 μM,90.1%
same,"Toxicity Values, average",[9]; 0.25 μM,0.874
same,"Toxicity Values, samples 1-3",[9]; 0.25 μM,0.867 and 0.819 and 0.934
same,"Toxicity Values, % cell control",[9]; 0.8 μM,82.8%
same,"Toxicity Values, average",[9]; 0.8 μM,0.803
same,"Toxicity Values, samples 1-3",[9]; 0.8 μM,0.824 and 0.770 and 0.814
same,"Toxicity Values, % cell control",[9]; 2.5 μM,75.0%
same,"Toxicity Values, average",[9]; 2.5 μM,0.728
same,"Toxicity Values, samples 1-3",[9]; 2.5 μM,0.794 and 0.684 and 0.704
same,"Toxicity Values, % cell control",[9]; 8 μM,69.3%
same,"Toxicity Values, average",[9]; 8 μM,0.672
same,"Toxicity Values, samples 1-3",[9]; 8 μM,0.639 and 0.700 and 0.677
same,"Toxicity Values, % cell control",[9]; 25 μM,4403%
same,"Toxicity Values, average",[9]; 25 μM,0.430
same,"Toxicity Values, samples 1-3",[9]; 25 μM,0.443 and 0.398 and 0.447
"CCC(C)n1ncn(-c2ccc(N3CCN(c4ccc(OCC5COC(Cn6cncn6)(c6ccc(Cl)cc6Cl)O5)cc4)CC3)cc2)c1=O (stereo not shown) [Itra, Itraconazole]",MFC,[1],> 32 µg/mL
same,MIC,[1],0.03 µg/mL
same,MIC,[2],0.03 µg/mL
"methyl 1,2- benzimidazole carbamate or benomyl",MFC data,[1],>32 µg/mL
same,MIC data,[1],8 µg/mL
same,MIC data,[2],0.06 µg/mL
